Consider 2 compounds from patent US11426367B2, “Methods of treating substance abuse” (Perception Neuroscience, Inc., priority 2018, dated 2022).

In one data set the test system is Control C57/B6 mice. The data set can be described thus: Conditioned place preference test (dependence test) in control mice. To be noted: control mice, 5, 10 or 20 mg/kg, injected on day 4, 6 and 8, test on day 11.
A further data set relates to Morphine Seizures. The note with it: Not blocked by naloxone; Kolesnikov et al., 1997; cited from earlier work.
The subject of data set [1] is rewarding effects of morphine. Nature of the data set: Morphine-induced conditioned place preference. In kind it is in vivo, mice. To be noted: for Morphine CPP, dose blocking the rewarding effects of morphine: Table 11, Present study. On the procedure:
The methods for conditioned place preference and evaluation of R-ketamine were conducted using the general methods of Suzuki et al. (2000). The general design was to dose mice with either saline+saline, saline+morphine, or R-ketamine+morphine and evaluate their preference for the morphine-associated place.
Male ddY mice (20-23 g) were obtained from Tokyo Experimental Animals Inc. (Tokyo, Japan). The ddY mice were bred in a closed colony. The mice were housed at a temperature of 22 f 1° C. with a 12-h light-dark cycle (light on 8:30 a.m. to 8:30 p.m.). Food and water were available ad libitum.
Place conditioning was conducted as described previously, using a minor modification of a biased procedure according to Suzuki et al. (2000). The apparatus consisted of a shuttlebox (15×30×15 cm: w×l×h) made of an acryl-resin board. The box was divided into two compartments of equal size by means of a sliding partition. One compartment was white with a textured floor; the other was black with a smooth floor. For conditioning mice were immediately conditioned to the white compartment following drug injection and to the black compartment following vehicle injection.
Conditioning sessions were conducted once daily for 6 consecutive days. […] Preference for a particular place was assessed in the drug-free state after placing the animals on the neutral platform and allowing them free access to both compartments. The time spent in each compartment during a 900-sec session was then measured automatically in a blinded fashion by two infrared beam sensors (KN-80, Natsume Seisakusyo, Tokyo, Japan) on the covers (3 cm from the center and the side) of the white and black compartments. […]
Conditioning scores represent the time spent in the drug-paired place minus the time spent in the vehicle-paired place, and are expressed as the mean±S.E.M. Behavioral data were evaluated statistically with a one-way analysis of variance (ANOVA) followed by Dunnett's test to determine whether individual doses produced significant conditioning.

Data set [2] has as its system social defeat stress mice. The data set can be described thus: Locomotion test (LMT), social defeat stress model. In kind it is in vivo. To be noted: 10 mg/kg i.p., 2 days after injection. How it is done: A social defeat stress model of depression was prepared by bringing C57/B6 male mice into contact with ICR male mice (large aggressive mice) for 10 consecutive days to apply a stress called a “social defeat stress” in accordance with the previous report (Non Patent Literature 19). […] Specifically, an increase in immobility time was found in each of a tail suspension test (TST) and a forced swimming test (FST).
The preparation of the animal model of depression and the administration of the agent were specifically performed as described below (FIG. 3A). Male C57/B6 mice (7-week-old, Japan SLC, Inc., Hamamatsu, Japan) and ICR mice (9-week-old, Japan SLC, Inc., Hamamatsu, Japan) were used. […]
The antidepressant effects of the agent were investigated by behavioral tests such as the TST, the PST, the LMT, and a 1% sucrose preference test (SPT) (FIG. 3A). […] The immobility time of each mouse was recorded for 10 minutes. […] The immobility time was calculated as a value obtained by subtracting active time from total time, using the analysis software of the apparatus. Cumulative immobility time was recorded over 6 minutes during a test period. […] The locomotor activity of the mice was counted with SCANET MV-40, and the cumulative exercise of the mice was recorded for 60 minutes. […] A spine density was quantitatively evaluated by observation with a KEYENCE microscope (BZ-9000, Osaka, Japan).

Procedure for Control C57/B6 mice: 15-minute habituation was performed for 3 days. Then, 30-minute conditioning was performed on day 4 to day 10, and a behavioral evaluation test was performed on day 11. Saline was injected on day 5, day 7, and day 9. […] In each of the groups, the injection was performed three times, i.e., on day 4, day 6, and day 8. Saline means a group injected with saline.
The administration of an agent was performed by the same methods as the methods described in Example 2.
The place preference test was performed using a conditioned place preference test apparatus (BrainScienceIdea Co., Ltd., Osaka, Japan). The analysis of the results of the place preference test was performed by one-way analysis of variance (one-way ANOVA), followed by a least significant difference test (LSD test). Data are presented as the mean plus minus standard error of the mean (n=9 or 10 mice/group). *p<0.05 and **p<0.01 indicate significant differences as compared to a group injected with saline.

As to `CN[C@@]1(c2ccccc2Cl)CCCCC1=O.Cl` [R(−)-ketamine], the “CPP score (conditioned place preference test)” value in the data set on Control C57/B6 mice was “did not increase the CPP score”. Further, the “Morphine Seizures, dose” value in the data set on Morphine Seizures was 0.3 mg/kg. For the same compound, the “conditioned place preference induced by morphine” value in data set [1] (10 mg/kg i.p. co-dosed with morphine 5 mg/kg i.p., F(2,29)=2.2, p=0.064) was “trend toward significant attenuation”. In addition, in data set [1], the “Morphine CPP, dose blocking the rewarding effects of morphine” value is 10 mg/kg. In addition, the “locomotion in the LMT” value in data set [2] is “no difference in locomotion”.

Turning to `CN[C@]1(c2ccccc2Cl)CCCCC1=O` [S(+)-ketamine], in the data set with Control C57/B6 mice, the “CPP score (conditioned place preference test)” value is recorded as “increased the CPP score in a dose-dependent manner”. In addition, the “Morphine Seizures, dose” value in the data set with Morphine Seizures is 0.03 mg/kg. The “Morphine CPP, dose blocking the rewarding effects of morphine” value in data set [1] was determined as 10 mg/kg. The “locomotion in the LMT” value in data set [2] was “no difference in locomotion”.
